Experimental data taken from PubChem BioAssay AID624300 (Southern Research Specialized Biocontainment Screening …, 2012).

Test system: HeLa viability, CellTiter-Glo luminescence, 24 h
Assay: HeLa cell cytotoxicity, dose response, cytotoxicity control for MgcRacGAP inhibitor project (AID 624300)

## C#CCOCCOCCOCCNc1nc(N2CCN(C(=O)CCCCCCCCCCNC(=O)[C@@H](CCSC)n3cc(CCO)nn3)CC2)nc(N2CCN(C(=O)CCCCCCCCCCNC(=O)[C@H](CO)n3cc(CCCCCN)nn3)CC2)n1
  CC50: 85.3 µM
